The text below walks through data of US20230128372A1 (EXCALIBUR MEDICINES LIMITED, priority 2020, published 2023).

Usually pEC50 stands for the negative decadic logarithm of the EC50, by convention in mol/L.

pEC50: −log10 of the molar value.

For data set [1], the system named is healthy, non-diabetic patients. The settings on record: doses of 40 mg or 80 mg; hypoglycaemia defined as 2.7 mmol/l; cited from earlier work.
In the next data set the target is human glucokinase (Homo sapiens, UniProt P35557). Conditions: read-out: EC50 activation of glucokinase; recombinant human enzyme, in vitro; cited from earlier work.
The test system of data set [2] is Japanese type 2 diabetic subjects. Conditions: cited from earlier work.
Another data set addresses T1, rat glucokinase (Rattus norvegicus, UniProt P17712).
T1 sequence (P17712 1-465): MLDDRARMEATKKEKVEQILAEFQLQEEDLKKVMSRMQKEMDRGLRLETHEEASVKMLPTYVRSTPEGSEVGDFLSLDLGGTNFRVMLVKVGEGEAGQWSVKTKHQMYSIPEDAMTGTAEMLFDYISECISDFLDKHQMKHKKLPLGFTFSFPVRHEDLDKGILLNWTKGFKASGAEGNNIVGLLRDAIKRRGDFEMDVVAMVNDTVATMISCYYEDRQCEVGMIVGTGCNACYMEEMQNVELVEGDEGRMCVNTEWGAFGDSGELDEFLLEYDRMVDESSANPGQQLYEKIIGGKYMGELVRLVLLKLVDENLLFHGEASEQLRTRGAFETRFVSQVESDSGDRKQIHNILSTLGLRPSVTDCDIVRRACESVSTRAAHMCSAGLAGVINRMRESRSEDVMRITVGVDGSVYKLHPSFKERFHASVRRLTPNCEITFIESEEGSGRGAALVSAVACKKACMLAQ
Conditions: read-out: EC50 activation of glucokinase; recombinant rat enzyme, in vitro; cited from earlier work.

The next data set has as its system human hepatocytes. The settings on record: cited from earlier work.
In data set [3] the test system is normo-glycaemic insulin resistant rats. Conditions: dosed acutely and once daily for up to 28 days, rapid onset of action; cited from earlier work.
The next data set concerns diabetic mice. Conditions: dosed acutely and once daily for up to 28 days, rapid onset of action; cited from earlier work.
Another data set concerns healthy animals. The settings on record: cited from earlier work.
A further data set concerns rat hepatocytes. The settings on record: cited from earlier work.
For data set [4], the system named is hospitalised diabetic patients with known or suspected COVID-19. Conditions: 60 patients, test and control group combined (blinded); 12 deaths expected from Coronad study.

Chain of human glucokinase (P35557 whole entry): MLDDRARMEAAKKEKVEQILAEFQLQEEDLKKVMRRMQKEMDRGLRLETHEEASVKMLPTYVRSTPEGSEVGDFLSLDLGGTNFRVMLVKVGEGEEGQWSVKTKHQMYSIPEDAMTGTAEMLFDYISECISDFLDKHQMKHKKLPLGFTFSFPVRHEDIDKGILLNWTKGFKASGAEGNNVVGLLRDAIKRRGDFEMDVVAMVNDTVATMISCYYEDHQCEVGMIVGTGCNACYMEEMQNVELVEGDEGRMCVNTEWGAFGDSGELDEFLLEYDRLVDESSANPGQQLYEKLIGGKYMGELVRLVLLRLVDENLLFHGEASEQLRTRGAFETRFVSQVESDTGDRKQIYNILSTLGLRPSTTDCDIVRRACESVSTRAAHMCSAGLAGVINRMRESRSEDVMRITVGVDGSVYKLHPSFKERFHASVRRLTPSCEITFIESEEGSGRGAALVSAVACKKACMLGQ

As to `COC[C@H](C)Oc1cc(Oc2cnc(C(=O)N3CCC3)cn2)cc(C(=O)Nc2cnc(C)cn2)c1` [AZD1656, 3-{[5-(Azetidin-1-ylcarbonyl)pyrazin-2-yl]oxy}-5-{[(1S)-1-methyl-2-(methyloxy)ethyl]oxy}-N-(5-methylpyrazin-2-yl)benzamide], the hypoglycaemia entry in data set [1] is “not to cause hypoglycaemia”. Also, the pEC50 at human glucokinase is 7.24; on rat glucokinase, 7.14; with human hepatocytes, 5.86; in the data set with rat hepatocytes it was 6.33. Further, the “HbA1c and fasting plasma glucose (FPG) levels” value in data set [2] (BID at high (40-200 mg/day), medium (20-140 mg/day) and low (10-80 mg/day) doses over 4 months) was “found to lower HbA1c and fasting plasma blood (FPG) glucose levels”. In addition, the “change in HbA1c or FPG from baseline” value in data set [2] (at 4 months) is “no statistically significant change”. Moreover, the “time course of HbA1c/FPG effect” value in [2] (between weeks 8 and 16) is recorded as “transient trending towards pre-dose levels”. Further, the plasma glucose levels entry (in data set [3]; in the data set on diabetic mice) was “reduces plasma glucose levels in a dose-dependent fashion” in each case. Further, in the data set with healthy animals (healthy animals, chronic toxicology studies), the “changes in the liver, considered secondary to hypoglycaemia” value was “loss of hepatocellular glycogen”. The chronic toxicology findings result in the data set on healthy animals (healthy animals, higher doses, up to 12 months) was “severe hypoglycaemia at higher doses and sequalae such as Wallerian type nerve degeneration and skeletal muscle fibre degeneration”. Moreover, the glucose lowering effect entry in the data set with healthy animals (preclinical studies of up to 12-month duration) is recorded as “potent glucose lowering effect”. Moreover, the “deaths among patients who completed the trial protocol” value in data set [4] amounted to 5.
